Reference: patent publication US6063780A, “Method of treating a tumor” (priority 1998, dated 2000)
Like-named read-outs stand apart in the source and are kept apart here.

Experiments:
MV-522 Human Lung Tumor [1] = assay: Oxaliplatin, Paclitaxel and Tirapazamine vs MV-522 Human Lung Tumor Xenograft (Example 4); details: for % Tumor Growth Inhibition (TGI) / Actual Tumor Wt. (Mean ± SEM) / Weight Change (Day 6) / # of Toxic Deaths / Mice with Complete Shrinkage / Mice with partial Tumor Shrinkage: oxaliplatin 15 mg/kg (MTD), paclitaxel 20 mg/kg, tirapazamine 70 mg/kg, i.p., qdx1; for % Tumor Growth Inhibition (TGI): in the animals without shrinkage; for Actual Tumor Wt. (Mean ± SEM) / Weight Change (Day 6): n=8; for # of Toxic Deaths / Mice with Complete Shrinkage / Mice with partial Tumor Shrinkage: number of 8 mice; for antitumor efficacy (in words): oxaliplatin experiment
Description: (§1) Nude mice weighing approximately 20 g were implanted s.c. by trocar with fragments of MV-522 human lung carcinomas harvested from s.c. growing tumors in nude mice hosts. When tumors were approximately 5 mm×5 mm in size (usually ten days after inoculation), the animals were pair-matched into treatment and control groups. Each group contained 8 tumored mice, each of which was ear-tagged and followed individually throughout the experiment. Tirapazamine was administered three hours prior to oxaliplatin, carboplatin and paclitaxel. The route and schedule for all drugs was i.p., qdxl.
(§2) Mice were weighed twice weekly, and tumor measurements were taken by calipers twice weekly, starting on Day 1. These tumor measurements were converted to mg tumor weight by a well-known formula, L×W^2 /2. The experiment was terminated when control tumors reached a size of 1 gram. Upon termination, all mice were weighed, sacrificed, and their tumors excised. Tumors were weighed, and the mean tumor weight per group was calculated.
(§3) With these agents, the final weight of a given tumor was subtracted from its own weight at the start of treatment on Day 1. This difference divided by the initial tumor weight is the % shrinkage. A mean % tumor shrinkage can be calculated from data from the mice in a group that experienced tumor regressions. If the MV-522 tumor completely disappeared in a mouse, this was considered a complete regression or complete tumor shrinkage.
Paclitaxel and tirapazamine were given at doses of 20 mg/kg and 70 mg/kg respectively (i.p.; qd×1).

MV-522 Human Lung Tumor [2] = assay: Carboplatin, Paclitaxel and Tirapazamine vs MV-522 Human Lung Tumor Xenograft (confirming study, Example 3); details: for Final Tumor Wt. (Mean ± SEM) / Weight Change (Day 6): n=8; for antitumor efficacy (in words): carboplatin experiment / general statement; for Mean % Tumor Shrinkage: mice with partial shrinkage
Description: as §1, §2, §3
Paclitaxel and tirapazamine were administered i.p. as a single bolus at doses of 20 mg/kg (2/3 MTD) and 70 mg/kg (MTD) respectively. Carboplatin was given as a single i.p. bolus at doses of 100 mg/kg (MTD) or 50 mg/kg (1/2 MTD).

[3] = cited from earlier work
[4] = system: FSaIIC Murine Fibrosarcoma; details: cited from earlier work
[5] = system: mouse SCCVII and other tumors; details: multiple injections in conjunction with fractionated irradiation; cited from earlier work
[6] = carboplatin 50 mg/kg (1/2 MTD), paclitaxel 20 mg/kg, tirapazamine 70 mg/kg where combined, i.p., qdx1, in the animals without shrinkage
[7] = carboplatin 50 mg/kg (1/2 MTD), paclitaxel 20 mg/kg, tirapazamine 70 mg/kg where combined, i.p., qdx1
[8] = carboplatin 50 mg/kg (1/2 MTD), paclitaxel 20 mg/kg, tirapazamine 70 mg/kg where combined, i.p., qdx1, number of 8 mice
[9] = carboplatin 100 mg/kg (MTD), paclitaxel 20 mg/kg, tirapazamine 70 mg/kg where combined, i.p., qdx1, in the animals without shrinkage
[10] = carboplatin 100 mg/kg (MTD), paclitaxel 20 mg/kg, tirapazamine 70 mg/kg where combined, i.p., qdx1
[11] = carboplatin 100 mg/kg (MTD), paclitaxel 20 mg/kg, tirapazamine 70 mg/kg where combined, i.p., qdx1, number of 8 mice
[12] = groups without carboplatin, paclitaxel 20 mg/kg, tirapazamine 70 mg/kg, i.p., qdx1
[13] = groups without carboplatin, paclitaxel 20 mg/kg, tirapazamine 70 mg/kg, i.p., qdx1, number of 8 mice

Row | Molecule | % Tumor Growth Inhibition (TGI) (MV-522 Human Lung Tumor [1]) [%] | Actual Tumor Wt. (Mean ± SEM) (MV-522 Human Lung Tumor [1]) [mg] | Weight Change (Day 6) (MV-522 Human Lung Tumor [1]) | # of Toxic Deaths (MV-522 Human Lung Tumor [1]) | Mice with Complete Shrinkage (MV-522 Human Lung Tumor [1]) | Mice with partial Tumor Shrinkage (MV-522 Human Lung Tumor [1]) | antitumor efficacy (in words) (MV-522 Human Lung Tumor [1]) | % Tumor Growth Inhibition (TGI) (MV-522 Human Lung Tumor [2]; [6]) [%] | Final Tumor Wt. (Mean ± SEM) (MV-522 Human Lung Tumor [2]; [7]) [mg] | Weight Change (Day 6) (MV-522 Human Lung Tumor [2]; [7]) | # of Toxic Deaths (MV-522 Human Lung Tumor [2]; [8]) | Mice with Complete Shrinkage (MV-522 Human Lung Tumor [2]; [8]) | Mice with partial Tumor Shrinkage (MV-522 Human Lung Tumor [2]; [8]) | % Tumor Growth Inhibition (TGI) (MV-522 Human Lung Tumor [2]; [9]) [%] | Final Tumor Wt. (Mean ± SEM) (MV-522 Human Lung Tumor [2]; [10]) [mg] | Weight Change (Day 6) (MV-522 Human Lung Tumor [2]; [10]) [%] | # of Toxic Deaths (MV-522 Human Lung Tumor [2]; [11]) | Mice with Complete Shrinkage (MV-522 Human Lung Tumor [2]; [11]) | Mice with partial Tumor Shrinkage (MV-522 Human Lung Tumor [2]; [11]) | Final Tumor Wt. (Mean ± SEM) (MV-522 Human Lung Tumor [2]; [12]) [mg] | other results
1 | O=C1[O][Pt]2([NH][C@@H]3CCCC[C@H]3[NH]2)[O]C1=O (relative stereo) [Oxaliplatin, cis-oxalato(trans-1-1,2-cyclohexanediamine) platinum (II)] | 8.2 | 731.5 ± 62.6 | +5.2% | 0 | 0 | 0 | not active | – | – | – | – | – | – | – | – | – | – | – | – | – | –
2 | N.N.O=C([O-])C1(C(=O)[O-])CCC1.[Pt+2] [Carboplatin, platinum, diammine [1,1-cyclobutane-dicarboxylato(2)-0,0']-, (SP-4-2)] | – | – | – | – | – | – | – | 22.5 | 698.1 ± 160.5 | -1.7% | 0 | 0 | 0 | 39.7 | 556.5 ± 129.8 | -1.5 | 0 | 0 | 0 | – | % Tumor Growth Inhibition (TGI) (MV-522 Human Lung Tumor [2]; carboplatin 100 mg/kg (MTD), paclitaxel 20 mg/kg, tirapazamine 70 mg/kg where combined, i.p., qdx1, in the animals without shrinkage, listed as carboplatin): approximately 40%; pH of a 1% solution ([3]; 1% solution): 5-7; rate of aquation ([3]; compared with cisplatin): occurs at a slower rate than in the case of cisplatin; solubility in water ([3]; water): approximately 14 mg/mL
3 | CC(=O)OC1C(=O)C2(C)C(O)CC3OCC3(OC(C)=O)C2C(OC(=O)c2ccccc2)C2(O)CC(OC(=O)C(O)C(NC(=O)c3ccccc3)c3ccccc3)C(C)=C1C2(C)C [Paclitaxel, 5β,20-Epoxy-1,2α,4,7β,10β,13α-hexahydroxytax-11-en-9-one 4,10-diacetate 2-benzoate 13-ester with (2R, 3S)-N-benzoyl-3-phenylisoserine] | 30.9 | 570.5 | +0.9% | 1 | 0 | 0 | – | – | – | – | – | – | – | – | – | – | – | – | – | 552.9 ± 68.6 | Weight Change (Day 6) (MV-522 Human Lung Tumor [2]; [12]): +0.4%; # of Toxic Deaths (MV-522 Human Lung Tumor [2]; [13]): 1; Mice with Complete Shrinkage (MV-522 Human Lung Tumor [2]; [13]): 0; Mice with partial Tumor Shrinkage (MV-522 Human Lung Tumor [2]; [13]): 0; # of Toxic Deaths (MV-522 Human Lung Tumor [2]; groups without carboplatin, paclitaxel 20 mg/kg, tirapazamine 70 mg/kg, i.p., qdx1, number of 8 mice, listed as paclitaxel): one toxic death; solubility in water (in words) ([3]; water): insoluble in water
4 | Nc1n[n+]([O-])c2ccccc2[n+]1[O-] [Tirapazamine, 3-amino-1,2,4-benzotriazine 1,4-dioxide] | 2.5 | 769.1 ± 73.0 | -6.9% | 0 | 0 | 0 | not active | – | – | – | – | – | – | – | – | – | – | – | – | 835.3 ± 111.2 | dose enhancement / cytotoxic effect in combination ([4]; given just before single-dose cyclophosphamide, carmustine or melphalan): marked dose enhancement leading to synergistic cytotoxic effects on tumor cells; dose enhancement / cytotoxic effect in combination ([4]; given just prior to single-dose cisplatin): additive effect, except at the highest dose level of cisplatin; antitumor efficacy (in words) (MV-522 Human Lung Tumor [2]): not active as a single agent; % Tumor Growth Inhibition (TGI) (MV-522 Human Lung Tumor [2]; [12]): 5.7%; Weight Change (Day 6) (MV-522 Human Lung Tumor [2]; [12]): -1.7%; # of Toxic Deaths (MV-522 Human Lung Tumor [2]; [13]): 0; Mice with Complete Shrinkage (MV-522 Human Lung Tumor [2]; ip, 70 mg/kg): 0; Mice with partial Tumor Shrinkage (MV-522 Human Lung Tumor [2]; ip, 70 mg/kg): 0; tumor cell kill with fractionated irradiation [5]: kills hypoxic cells, increases tumor cell kill while sparing normal tissue
5 | Paclitaxel + Carboplatin | – | – | – | – | – | – | – | 49.8 | 474.0 ± 93.5 | +1.7% | 0 | 0 | 0 | 68.8 | 241.4 ± 70.3 | -1.3 | 0 | 0 | 2 | – | Mean % Tumor Shrinkage (MV-522 Human Lung Tumor [2]; [10]): 53.0%; Mean % Tumor Shrinkage (MV-522 Human Lung Tumor [2]; carboplatin 100 mg/kg (MTD), paclitaxel 20 mg/kg, tirapazamine 70 mg/kg where combined, i.p., qdx1, listed as paclitaxel-high dose carboplatin): 53%; Mice with partial Tumor Shrinkage (MV-522 Human Lung Tumor [2]; carboplatin 100 mg/kg (MTD), paclitaxel 20 mg/kg, tirapazamine 70 mg/kg where combined, i.p., qdx1, number of 8 mice, listed as paclitaxel-high dose carboplatin): two; antitumor efficacy (in words) (MV-522 Human Lung Tumor [2]): even more effective
